# In patent publication US8501911B2, “Methods of reducing inflammation and mucus hypersecretion” (Biomarck Pharmaceuticals, Ltd, priority 1999, dated 2013):
# Read-outs that look alike come from different tables or passages of the source. Residues, ends and D or L forms follow the SMILES beside them. *: point of attachment. Myristoyl = CCCCCCCCCCCCCC(=O)*
# Experiments:
# NHBE cells = assay: UTP-induced mucin secretion from NHBE cells (ELISA); assay type: cell-based, human; conditions: for Mucin secretion, % of control levels: co-incubation with 0.1 mM UTP 45 min
# Protocol: In Results-I-1D, NHBE cells were preincubated with the indicated inhibitor for 15 min and then stimulated with 100 μM UTP for 2 h. Secreted mucin in response to the treatment was collected and assayed by ELISA. Data are presented as mean±S.E. (n=6 at each point).
# UTP is a well defined pathophysiologically relevant mucin secretagogue. Lethem ct al., Am. J. Respir. Cell Mol. Biol. 9, 315-322 (1993). […] To determine whether PKC and PKG were involved in regulation of mucin secretion in response to a pathophysiological stimulus, effects of PKC/PKG inhibitors on UTP-induced mucin secretion were investigated. NHBE cells were preincubated with various inhibitors for 15 min and then exposed to UTP (100 μM) plus the inhibitor for 2 h. The secreted mucin was measured by ELISA. […] Apparently, mucin secretion in NHBE cells may be regulated by a signaling mechanism involving both PKC and PKG.
# Peptide Blocking Studies—NHBE cells were preincubated with either the MANS or the RNS peptide (1-100 μM) for 15 min, and then PMA (100 nM)+8-Br-cGMP (1 μM) or UTP (100 μM) was added, and cells were incubated for an additional 15 min or 2 h. respectively. Mucin secretion was measured by ELISA and experimental results are designated as Results-I-2B-1 and Results-I-2B-2, as follows.
# PP2A is an essential component of the mucin secretory pathway. NHBE cells were preincubated with the indicated concentration of fostriecin, okadaic acid (500 nM), or medium alone for 15 min and then stimulated with PMA (100 nM)+8-Br-cGMP (1 μM) for 15 min or with UTP (100 μM) for 2 h. Secreted mucin was measured by ELISA. […] Thus, dephosphorylation of MARCKS by a PKG-activated PP2A appears to be an essential component of the signaling pathway leading to mucin granule exocytosis.
# Measurement of Mucin Secretion by ELISA—Before collection of “base line” and “test” mucin samples, the accumulated mucus at the apical surface of the cells was removed by washing with phosphate-buffered saline, pH 7.2. To collect the base-line secretion, cells were incubated with medium alone, and secreted mucin in the apical medium was collected and reserved. Cells were rested for 24 h and then exposed to medium containing the selected stimulatory and/or inhibitory reagents (or appropriate controls), after which secreted mucin was collected and reserved as the test sample. Incubation times for the base line and the test were the same but varied depending on the test reagent utilized. Both base line and test secretions were analyzed by ELISA using an antibody capture method as known in the art. See, e.g., Harlow et al., Antibodies: A Laboratory Manual, pp. 570-573, Cold Spring Harbor Laboratory, Cold Spring Harbor, N.Y. (1988). The primary antibody for this assay was 17Q2 (Babco, Richmond, Calif.), a monoclonal antibody that reacts specifically with a carbohydrate epitope on human airway mucins. The ratio of test/base-line mucin, which is similar to a “secretory index”, was used to quantify mucin secretion, allowing each culture dish to serve as its own control and thus, minimizing deviation caused by variability among culture wells. Wright et al., Am. J. Physiol. 271, L854-L861 (1996). Levels of mucin secretion were reported as percentage of the medium control.
# These experiments were carried out similarly to those described in Example 7. To test for stimulated secretion, the cells were exposed apically and basolaterally to uridine 5′-triphosphate (UTP) at a concentration of 0.1 mM in media. Cells were pre-incubated for 15 minutes with the MANS peptide and test cultures were then co-incubated with the MANS peptide and UTP for 45 minutes.
# NHBE cells were pre-incubated with okadaic acid (500 nM) for 15 min at 37° C./5% CO2, then stimulated with PMA (100 nM)+8-Br-cGMP (1 μM) for 15 min, or with UTP (0.1 mM) for 2 hours. Secreted mucin in the apical medium was collected and assayed by ELISA. […]
# human neutrophils = assay: Inhibition of release of myeloperoxidase (MPO) from PMA-stimulated human neutrophils; assay type: cell-based; conditions: at 100 μM of test peptide; 100 nM PMA
# Text: Human neutrophil isolation: Human neutrophils were isolated according to a slightly modified method previously described by Akasaki T, Koga H, and Sumimoto H., Phosphoinositide 3-kinase-dependent and -independent activation of the small GTPase Rac2 in human neutrophils, J. Biol. Chem. 274:18055-18059, 1999. Alternatively, human neutrophils were isolated as previously described (see Takashi S, OkuboY, Horie S. Contribution of CD54 to human eosinophil and neutrophil superoxide production. J. Appl. Physiol. 91:613-622, 2001) with slight modifications. Briefly, heparinized venous blood was obtained from normal healthy human volunteers, diluted with RPMI-1640 (Cellgro; Mediatech, Inc., Herndon, Va.) at a ratio of 1:1, layered onto a Histopaque (density, 1.077 g/ml; Sigma-Aldrich Co., St. Louis, Mo.), and centrifuged at 400 g for 20 min at 4° C. The supernatant and mononuclear cells at the interface were carefully removed, and erythrocytes in the sediment were lysed in chilled distilled water. Isolated granulocytes were washed twice with Hanks' balanced salts solution (HBSS) and resuspended in HBSS on ice. The neutrophils used for the experiments were of >98% purity with <2% contamination by eosinophils, and the viability was >99% as determined by Trypan blue dye exclusion.
# Measurement of released MPO activity: Purified human neutrophils suspended in HBSS were aliquoted at 4×10^6 cells/ml in 15 ml tubes and preincubated with either 50 or 100 μM of test peptide (dissolved in PBS, pH 7.0) for 10 min at 37° C. […] Secretions were quantified by using as a standard, human MPO.
# MPO activity in the cell supernatant was assayed using tetramethylbenzidine (TMB) based on a previously established technique (Paige L, Mahmudi-Azer S, Bablitz B, Hage S C, Velazquez J R, Man S F P, and Moqbel R. Rapid Mobilization of intracellularly stored RANTES in response to Interferon-γ in human eosinophils. Blood, 94:23-32, 1999). […] The reaction was terminated by addition of 50 μl of 1M H2SO4 and absorbance was read at 450 nm in a spectrophotometric microplate reader (Molecular Devices, Sunnyvale, Calif.).
# [1] = peptide 1 μM, 15 min preincubation, then UTP 100 μM 2 h
# [2] = peptide 100 μM, 15 min preincubation, then UTP 100 μM 2 h
# [3] = test agent 10 μM, 15 min preincubation, then UTP 100 μM 2 h
compound,measurement,setting,value
CCCCCCCCCCCCCC(=O)NCC(=O)N[C@@H](C)C(=O)N[C@@H](CCC(N)=O)C(=O)N[C@@H](Cc1ccccc1)C(=O)N[C@@H](CO)C(=O)N[C@@H](CCCCN)C(=O)N[C@H](C(=O)N[C@@H](C)C(=O)N[C@@H](C)C(=O)N[C@@H](CCCCN)C(=O)NCC(=O)N[C@@H](CCC(=O)O)C(=O)N[C@@H](C)C(=O)N[C@@H](C)C(=O)N[C@@H](C)C(=O)N[C@@H](CCC(=O)O)C(=O)N[C@@H](CCCNC(=N)N)C(=O)N1CCC[C@H]1C(=O)NCC(=O)N[C@@H](CCC(=O)O)C(=O)N[C@@H](C)C(=O)N[C@@H](C)C(=O)N[C@H](C(=O)N[C@@H](C)C(=O)O)C(C)C)[C@@H](C)O [MANS peptide] (Myristoyl-GAQFSKTAAKGEAAAERPGEAAVA-OH; C-terminus assumed),Mucin secretion as % of the level observed with 0.1 mM UTP absent MANS peptide,NHBE cells; peptide 1 μM,about 90%
same,"Mucin secretion, % of control levels","NHBE cells; peptide 1 μM, 15 min preincubation",146%
same,Mucin secretion as percent of control,NHBE cells; [1],143%
same,Mucin secretion as % of the level observed with 0.1 mM UTP absent MANS peptide,NHBE cells; peptide 10 μM,about 80%
same,"Mucin secretion, % of control levels","NHBE cells; peptide 10 μM, 15 min preincubation",128%
same,Mucin secretion as % of the level observed with 0.1 mM UTP absent MANS peptide,NHBE cells; peptide 100 μM,about 29%
same,"Mucin secretion, % of control levels","NHBE cells; peptide 100 μM, 15 min preincubation",46%
same,Mucin secretion as percent of control,NHBE cells; [2],46%
same,Mucin secretion as percent of control,NHBE cells; [3],125%
same,% Inhibition MPO,human neutrophils,31.2%
"CCCCCCCCCCCCCC(=O)NCC(=O)N[C@H](C(=O)N[C@@H](C)C(=O)N1CCC[C@H]1C(=O)N[C@@H](C)C(=O)N[C@@H](C)C(=O)N[C@@H](CCC(=O)O)C(=O)NCC(=O)N[C@@H](C)C(=O)NCC(=O)N[C@@H](C)C(=O)N[C@@H](CCC(=O)O)C(=O)N[C@H](C(=O)N[C@@H](CCCCN)C(=O)N[C@@H](CCCNC(=N)N)C(=O)N[C@@H](C)C(=O)N[C@@H](CO)C(=O)N[C@@H](C)C(=O)N[C@@H](CCC(=O)O)C(=O)N[C@@H](C)C(=O)N[C@@H](CCCCN)C(=O)N[C@@H](CCC(N)=O)C(=O)N[C@@H](C)C(=O)N[C@@H](Cc1ccccc1)C(=O)O)C(C)C)[C@@H](C)O [RNS peptide, reference compound] (Myristoyl-GTAPAAEGAGAEVKRASAEAKQAF-OH; C-terminus assumed)",Mucin secretion as percent of control,NHBE cells; [1],154%
same,Mucin secretion as percent of control,NHBE cells; [2],158%
same,Mucin secretion as percent of control,NHBE cells; [3],155%
same,% Inhibition MPO,human neutrophils,0%
"CCCCCCCCCCCCCC(=O)NCC(=O)N[C@@H](C)C(=O)N[C@@H](CCC(N)=O)C(=O)N[C@@H](Cc1ccccc1)C(=O)N[C@@H](CO)C(=O)N[C@@H](CCCCN)C(=O)N[C@H](C(=O)N[C@@H](C)C(=O)N[C@@H](C)C(=O)N[C@@H](CCCCN)C(=O)NCC(=O)N[C@@H](CCC(=O)O)C(=O)O)[C@@H](C)O [SEQ ID NO: 13, N-myristoyl-GAQFSKTAAKGE] (Myristoyl-GAQFSKTAAKGE-OH; C-terminus assumed)",% Inhibition MPO,human neutrophils,43.2%
C[C@@](O)(/C=C/[C@H]1CC=CC(=O)O1)[C@@H](C[C@@H](O)\C=C/C=C\C=C\CO)OP(=O)(O)O [fostriecin],activity at 0.01 µM,"NHBE cells; Homo sapiens, NHBE, inhibitor 10 nM, 15 min preincubation, then UTP 100 μM 2 h, read-out: Mucin secretion as percent of control",152%
same,activity at 0.1 µM,"NHBE cells; Homo sapiens, NHBE, inhibitor 100 nM, 15 min preincubation, then UTP 100 μM 2 h, read-out: Mucin secretion as percent of control",134%
same,activity at 0.5 µM,"NHBE cells; Homo sapiens, NHBE, inhibitor 500 nM, 15 min preincubation, then UTP 100 μM 2 h, read-out: Mucin secretion as percent of control",124%
C=C1[C@@H](O)[C@@H]2O[C@]3(CC[C@H](/C=C/[C@@H](C)[C@@H]4CC(C)=C[C@@]5(O[C@H](C[C@@](C)(O)C(=O)O)CC[C@H]5O)O4)O3)CC[C@H]2O[C@@H]1[C@@H](O)C[C@H](C)[C@H]1O[C@@]2(CCCCO2)CC[C@H]1C [okadaic acid],activity at 0.5 µM,"NHBE cells; Homo sapiens, NHBE, read-out: Mucin secretion as percent of control, inhibitor 500 nM, 15 min preincubation, then UTP 100 μM 2 h",112%
same,Mucin secretion as percent of control,"NHBE cells; inhibitor 500 nM, 15 min preincubation, then UTP 100 μM 2 h",110%
same,Reduction in mucin secretion level from UTP-stimulated level,"NHBE cells; inhibitor 500 nM, UTP 0.1 mM 2 h",31%
TNF-α,"Mucin secretion level, % of control","NHBE cells; TNF-α 10 ng/ml 4 h, then UTP 0.1 mM 2 h",191%
